Source: PubChem BioAssay AID1259407 (Chemical Carcinogenesis Research Information System (CCRIS), 2018)
Active and inactive are the calls of the source. How the calls were made is not given here.

Test system: CCRIS mutagenicity, Ames/micronucleus/aberration tests
Assay: CCRIS mutagenicity studies

**Q.** Which mutagenic call (End Point: IN VITRO CHROMOSOMAL ABERRATIONS, Test System: CHL CELLS, Metabolic Activation: RAT, LIVER, S-9, SODIUM PHENOBARBITAL AND 5,6-BENZOFLAVONE) does the source give for `O=C(O)C(Cl)Cl` here?
**A.** The mutagenic call was “active; positive (structural changes)”.

**Q.** What about the mutagenic call (End Point: In vivo micronucleus, Test System: Normochromatic erythrocytes, Species: Mouse, Strain/Sex: B6C3F1/Male, Route: Oral) of the same molecule?
**A.** The mutagenic call was “inactive; negative”.

**Q.** And the mutagenic call (End Point: In vivo micronucleus, Test System: Peripheral blood normochromatic erythrocytes, Species: Mouse, Strain/Sex: B6C3F1/Female, Route: Oral)?
**A.** Its mutagenic call is “inactive; negative; increase in frequency of micronucleated erythrocytes was judged to be”.

**Q.** And the mutagenic call (End Point: In vivo micronucleus, Test System: Peripheral blood normochromatic erythrocytes, Species: Mouse, Strain/Sex: B6.129-TRP53TM1 BRD/Female, Route: Oral)?
**A.** Its mutagenic call is “inactive; negative”.

**Q.** What about the mutagenic call (End Point: In vivo micronucleus, Test System: Peripheral blood normochromatic erythrocytes, Species: Mouse, Strain/Sex: B6.129-TRP53TM1 BRD/Male, Route: Oral) of the same molecule?
**A.** The mutagenic call was “inactive; negative”.

**Q.** What about the mutagenic call (End Point: In vivo micronucleus, Test System: Peripheral blood normochromatic erythrocytes, Species: Mouse, Strain/Sex: FVB/N-TgN (v-Ha-ras)Led (Tg.AC) hemizygous/Female, Route: Dermal) of the same molecule?
**A.** Its mutagenic call is “inactive; negative”.

**Q.** And the mutagenic call (End Point: In vivo micronucleus, Test System: Peripheral blood normochromatic erythrocytes, Species: Mouse, Strain/Sex: FVB/N-TgN (v-Ha-ras)Led (Tg.AC) hemizygous/Male, Route: Dermal)?
**A.** The mutagenic call was “inactive; negative”.

**Q.** What about the mutagenic call (End Point: In vivo micronucleus, Test System: Peripheral blood normochromatic erythrocytes, Species: Mouse, Strain/Sex: Tg.AC hemizygous/Female, Route: Oral) of the same molecule?
**A.** The mutagenic call was “inactive; negative”.

**Q.** And the mutagenic call (End Point: In vivo micronucleus, Test System: Peripheral blood normochromatic erythrocytes, Species: Mouse, Strain/Sex: Tg.AC hemizygous/Male, Route: Oral)?
**A.** Its mutagenic call is “inactive; negative”.

**Q.** What about the mutagenic call (Test System: AMES SALMONELLA TYPHIMURIUM, Strain/Indicator: RSJ100, Metabolic Activation: NONE, Method: PREINCUBATION) of the same molecule?
**A.** The mutagenic call was “active; positive”.

**Q.** What about the mutagenic call (Test System: AMES SALMONELLA TYPHIMURIUM, Strain/Indicator: RSJ100, Metabolic Activation: RAT LIVER S-9, Method: PREINCUBATION) of the same molecule?
**A.** Its mutagenic call is “inactive; negative”.

**Q.** What about the mutagenic call (Test System: AMES SALMONELLA TYPHIMURIUM, Strain/Indicator: TA98, Metabolic Activation: NONE, Method: STANDARD PLATE) of the same molecule?
**A.** The mutagenic call was “inactive; negative”.

**Q.** And the mutagenic call (Test System: AMES SALMONELLA TYPHIMURIUM, Strain/Indicator: TA98, Metabolic Activation: RAT LIVER S-9, Method: PREINCUBATION)?
**A.** Its mutagenic call is “inactive; negative”.

**Q.** What about the mutagenic call (Test System: AMES SALMONELLA TYPHIMURIUM, Strain/Indicator: TA98, Metabolic Activation: RAT, LIVER, S-9, AROCLOR 1254, Method: STANDARD PLATE) of the same molecule?
**A.** Its mutagenic call is “inactive; negative”.

**Q.** What about the mutagenic call (Test System: AMES SALMONELLA TYPHIMURIUM, Strain/Indicator: TA98, Metabolic Activation: RAT, LIVER, S-9, PHENOBARBITAL AND 5,6-BENZOFLAVONE, Method: PREINCUBATION) of the same molecule?
**A.** Its mutagenic call is “inactive; negative”.

**Q.** What about the mutagenic call (Test System: AMES SALMONELLA TYPHIMURIUM, Strain/Indicator: TA100, Metabolic Activation: NONE, Method: BAG VAPORIZATION) of the same molecule?
**A.** Its mutagenic call is “active; positive”.

**Q.** What about the mutagenic call (Test System: AMES SALMONELLA TYPHIMURIUM, Strain/Indicator: TA100, Metabolic Activation: NONE, Method: FLUCTUATION TEST) of the same molecule?
**A.** The mutagenic call was “active; positive”.

**Q.** And the mutagenic call (Test System: AMES SALMONELLA TYPHIMURIUM, Strain/Indicator: TA100, Metabolic Activation: NONE, Method: PREINCUBATION)?
**A.** Its mutagenic call is “active; positive”.

**Q.** What about the mutagenic call (Test System: AMES SALMONELLA TYPHIMURIUM, Strain/Indicator: TA100, Metabolic Activation: NONE, Method: STANDARD PLATE) of the same molecule?
**A.** The mutagenic call was “inactive; negative”.

**Q.** What about the mutagenic call (Test System: AMES SALMONELLA TYPHIMURIUM, Strain/Indicator: TA100, Metabolic Activation: RAT LIVER S-9, Method: PREINCUBATION) of the same molecule?
**A.** Its mutagenic call is “active; positive”.

**Q.** And the mutagenic call (Test System: AMES SALMONELLA TYPHIMURIUM, Strain/Indicator: TA100, Metabolic Activation: RAT, LIVER, S-9, AROCLOR 1254, Method: BAG VAPORIZATION)?
**A.** Its mutagenic call is “active; positive”.

**Q.** What about the mutagenic call (Test System: AMES SALMONELLA TYPHIMURIUM, Strain/Indicator: TA100, Metabolic Activation: RAT, LIVER, S-9, AROCLOR 1254, Method: FLUCTUATION TEST) of the same molecule?
**A.** The mutagenic call was “active; positive”.

**Q.** What about the mutagenic call (Test System: AMES SALMONELLA TYPHIMURIUM, Strain/Indicator: TA100, Metabolic Activation: RAT, LIVER, S-9, AROCLOR 1254, Method: STANDARD PLATE) of the same molecule?
**A.** Its mutagenic call is “inactive; negative”.

**Q.** And the mutagenic call (Test System: AMES SALMONELLA TYPHIMURIUM, Strain/Indicator: TA100, Metabolic Activation: RAT, LIVER, S-9, PHENOBARBITAL AND 5,6-BENZOFLAVONE, Method: PREINCUBATION)?
**A.** Its mutagenic call is “inactive; negative”.

**Q.** What about the mutagenic call (Test System: AMES SALMONELLA TYPHIMURIUM, Strain/Indicator: TA102, Metabolic Activation: NONE, Method: STANDARD PLATE) of the same molecule?
**A.** The mutagenic call was “inactive; negative”.

**Q.** What about the mutagenic call (Test System: AMES SALMONELLA TYPHIMURIUM, Strain/Indicator: TA102, Metabolic Activation: RAT LIVER S-9, AROCLOR 1254, Method: STANDARD PLATE) of the same molecule?
**A.** The mutagenic call was “inactive; negative”.

**Q.** And the mutagenic call (Test System: AMES SALMONELLA TYPHIMURIUM, Strain/Indicator: TA102, Metabolic Activation: RAT, LIVER, S-9, PHENOBARBITAL AND 5,6-BENZOFLAVONE, Method: STANDARD PLATE)?
**A.** Its mutagenic call is “inactive; negative”.

**Q.** What about the mutagenic call (Test System: AMES SALMONELLA TYPHIMURIUM, Strain/Indicator: TA1535, Metabolic Activation: NONE, Method: STANDARD PLATE) of the same molecule?
**A.** Its mutagenic call is “inactive; negative”.

**Q.** And the mutagenic call (Test System: AMES SALMONELLA TYPHIMURIUM, Strain/Indicator: TA1535, Metabolic Activation: RAT, LIVER, S-9, AROCLOR 1254, Method: STANDARD PLATE)?
**A.** The mutagenic call was “inactive; negative”.

**Q.** And the mutagenic call (Test System: AMES SALMONELLA TYPHIMURIUM, Strain/Indicator: TA1537, Metabolic Activation: NONE, Method: STANDARD PLATE)?
**A.** The mutagenic call was “inactive; negative”.

**Q.** What about the mutagenic call (Test System: AMES SALMONELLA TYPHIMURIUM, Strain/Indicator: TA1537, Metabolic Activation: RAT, LIVER, S-9, AROCLOR 1254, Method: STANDARD PLATE) of the same molecule?
**A.** Its mutagenic call is “inactive; negative”.

**Q.** And the mutagenic call (Test System: AMES SALMONELLA TYPHIMURIUM, Strain/Indicator: TA2638, Metabolic Activation: RAT, LIVER, S-9, PHENOBARBITAL AND 5,6-BENZOFLAVONE, Method: STANDARD PLATE)?
**A.** Its mutagenic call is “inactive; negative”.

**Q.** What about the mutagenic call (Test System: Ames Salmonella typhimurium, Strain/Indicator: TA98, Metabolic Activation: Hamster, liver, S-9, Aroclor 1254 (30%), Method: Preincubation) of the same molecule?
**A.** Its mutagenic call is “inactive; negative”.

**Q.** What about the mutagenic call (Test System: Ames Salmonella typhimurium, Strain/Indicator: TA98, Metabolic Activation: Hamster, liver, S-9, Aroclor 1254, 30%, Method: Preincubation) of the same molecule?
**A.** The mutagenic call was “inactive; negative”.

**Q.** And the mutagenic call (Test System: Ames Salmonella typhimurium, Strain/Indicator: TA98, Metabolic Activation: Rat, liver, S-9, Aroclor 1254, 30%, Method: Preincubation)?
**A.** The mutagenic call was “inactive; negative”.

**Q.** What about the mutagenic call (Test System: Ames Salmonella typhimurium, Strain/Indicator: TA100, Metabolic Activation: Hamster, liver, S-9, Aroclor 125, 30%, Method: Preincubation) of the same molecule?
**A.** The mutagenic call was “inactive; negative”.

**Q.** What about the mutagenic call (Test System: Ames Salmonella typhimurium, Strain/Indicator: TA100, Metabolic Activation: Hamster, liver, S-9, Aroclor 1254, 30%, Method: Preincubation) of the same molecule?
**A.** The mutagenic call was “inactive; negative”.

**Q.** And the mutagenic call (Test System: Ames Salmonella typhimurium, Strain/Indicator: TA100, Metabolic Activation: None, Method: Preincubation)?
**A.** Its mutagenic call is “active; positive”.

**Q.** What about the mutagenic call (Test System: Ames Salmonella typhimurium, Strain/Indicator: TA100, Metabolic Activation: Rat, liver, S-9, Aroclor 1254, 30%, Method: Preincubation) of the same molecule?
**A.** The mutagenic call was “inactive; negative”.

**Q.** And the mutagenic call (Test System: Ames Salmonella typhimurium, Strain/Indicator: TA1535, Metabolic Activation: None, Method: Preincubation)?
**A.** Its mutagenic call is “active; positive, three trials performed; ntp described results as positive, weakly posi”.

**Q.** And the mutagenic call (Test System: E. COLI, Strain/Indicator: WP2 (PKM101), Metabolic Activation: RAT, LIVER, S-9, PHENOBARBITAL AND 5,6-BENZOFLAVONE, Method: STANDARD PLATE)?
**A.** The mutagenic call was “inactive; negative”.

**Q.** And the mutagenic call (Test System: E. COLI, Strain/Indicator: WP2 UVRA (PKM101), Metabolic Activation: RAT, LIVER, S-9, PHENOBARBITAL AND 5,6-BENZOFLAVONE, Method: STANDARD PLATE)?
**A.** Its mutagenic call is “inactive; negative”.

**Q.** And the mutagenic call (Test System: E. COLI, Strain/Indicator: WP2 UVRA, Metabolic Activation: NONE, Method: STANDARD PLATE)?
**A.** Its mutagenic call is “inactive; negative”.

**Q.** What about the mutagenic call (Test System: E. COLI, Strain/Indicator: WP2 UVRA, Metabolic Activation: RAT, LIVER, S-9, AROCLOR 1254, Method: STANDARD PLATE) of the same molecule?
**A.** The mutagenic call was “inactive; negative”.

**Q.** And the mutagenic call (Test System: MOUSE LYMPHOMA, Strain/Indicator: L5178Y (TK+/TK- -3.7.2C), Metabolic Activation: NONE)?
**A.** Its mutagenic call is “active; positive”.

**Q.** And the mutagenic call (Test System: MOUSE LYMPHOMA, Strain/Indicator: L5178Y (TK+/TK-), Metabolic Activation: NONE, Method: SUSPENSION/PLATE)?
**A.** The mutagenic call was “inactive; negative”.

**Q.** What about the mutagenic call (Test System: MOUSE LYMPHOMA, Strain/Indicator: L5187Y (TK+/TK-), Metabolic Activation: RAT, LIVER, S-9, AROCLOR 1254, Method: SUSPENSION/PLATE) of the same molecule?
**A.** The mutagenic call was “inactive; negative”.

**Q.** Which results are given for `O=c1[nH]c(=O)n([C@@H]2O[C@H](CO)[C@@H](O)[C@@H]2O)cc1/C=C/Br`?
**A.** mutagenic call (Test System: CHINESE HAMSTER V-79, Strain/Indicator: V-79/8-AZAGUANINE, Metabolic Activation: NONE): inactive; negative; mutagenic call (Test System: UDS RODENT HEPATOCYTES, Strain/Indicator: THY INCORP, Metabolic Activation: NONE): inactive; negative
